The values below come from article PMC8066102, “Metabolic Profiles of New Unsymmetrical Bisacridine Antitumor Agents in Electrochemical and Enzymatic Noncellular Systems and in Tumor Cells” (Pharmaceuticals, 2021).

Common to all, as to assay type: in vitro ADME
For one data set, the target named is T1, UGT1A1 (Homo sapiens, UniProt P22309).
T1 sequence (P22309 26-533): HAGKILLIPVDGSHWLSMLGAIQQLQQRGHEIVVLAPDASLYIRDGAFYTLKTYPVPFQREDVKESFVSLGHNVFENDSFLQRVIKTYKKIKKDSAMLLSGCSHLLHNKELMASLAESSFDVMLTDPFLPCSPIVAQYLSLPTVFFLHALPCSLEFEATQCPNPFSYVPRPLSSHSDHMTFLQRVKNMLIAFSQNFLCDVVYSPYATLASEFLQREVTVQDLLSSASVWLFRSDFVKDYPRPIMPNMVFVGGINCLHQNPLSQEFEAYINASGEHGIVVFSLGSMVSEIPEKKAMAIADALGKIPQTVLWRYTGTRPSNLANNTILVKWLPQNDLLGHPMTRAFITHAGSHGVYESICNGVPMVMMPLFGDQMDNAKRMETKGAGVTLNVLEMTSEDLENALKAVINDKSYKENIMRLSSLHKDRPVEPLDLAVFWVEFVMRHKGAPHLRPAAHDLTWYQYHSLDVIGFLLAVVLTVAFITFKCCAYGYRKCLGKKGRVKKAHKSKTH
Nature of the data set: Glucuronidation with recombinant UGT1A1. Also noted: His tag; purchased Corning, NY, USA (through DIAG-MED, Poland); host or cells: baculovirus-insect cells (Supersomes); Results say Sf9 cells; key: −: the lack of UGT activity; +: the significant UGT activity. To be noted: 0.05 mM compound, 1 mg/mL UGT, 5 mM UDPGA. The method, then: (§1) Recombinant UGT isoform protein (1 mg/mL) was assayed for activity toward tested UAs as follows. The proteins were incubated in a buffer containing 0.1 M HEPES (pH 7.4), 8 mM MgCl2 and alamethicin (25 μg/mL) with either 0.05 mM substrate in total volume 70 µL (alamethicin was added to permeabilize the membrane). Substrates were also in buffer HEPES, pH 7.4. Reactions were started by the addition of UDPGA (5 mM) and were incubated for specified time at 37 °C. The reactions were stopped by the addition of 8.75 µL of 1 M HCl, followed by centrifugation at 13400 rpm for 10 min to pellet the denatured protein. The supernatant fractions were used for HPLC analysis. Control reactions omitting substrate were run with each assay. All incubations were performed in two repetitions.

The target in a further data set is T2, P4503A4 (Homo sapiens, UniProt P08684).
T2 construct: purchased Cypex, Dundee, Scotland, UK (through Tebu-Bio); host or cells: Escherichia coli (Bactosomes)
T2 sequence (P08684 whole entry): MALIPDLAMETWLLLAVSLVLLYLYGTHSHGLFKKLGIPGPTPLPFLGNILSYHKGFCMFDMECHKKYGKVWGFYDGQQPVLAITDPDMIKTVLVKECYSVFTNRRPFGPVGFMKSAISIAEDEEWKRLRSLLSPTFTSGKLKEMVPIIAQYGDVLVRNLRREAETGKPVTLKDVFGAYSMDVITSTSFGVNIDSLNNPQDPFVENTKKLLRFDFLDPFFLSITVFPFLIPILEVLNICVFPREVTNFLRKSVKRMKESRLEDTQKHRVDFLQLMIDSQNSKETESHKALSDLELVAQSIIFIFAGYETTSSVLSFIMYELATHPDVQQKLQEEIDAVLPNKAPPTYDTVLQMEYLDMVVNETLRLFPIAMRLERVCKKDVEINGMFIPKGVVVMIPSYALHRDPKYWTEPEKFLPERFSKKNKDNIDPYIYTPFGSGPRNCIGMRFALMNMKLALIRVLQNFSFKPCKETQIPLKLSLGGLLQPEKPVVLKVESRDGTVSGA
In words: Metabolism with human recombinant P4503A4. To be noted: 0.05 mM compound, 1 mg/mL P4503A4, 2 mM NADPH, 30 min. The method, then:
UT-RLMs (2 mg/mL) and P450-RLMs induced with Dex, 3MC, or PB and recombinant P4502C19 and P4503A4 (1 mg/mL) were assayed for activity toward tested UAs as follows. The proteins were incubated in a buffer containing 0.1 M HEPES (pH 7.4), 2 mM MgCl2 with 0.05 mM substrate in total volume 70 µL. Substrates were added also in buffer HEPES, pH 7.4. Reactions were started by the addition of NADPH (2 mM) and were incubated for specified time at 37 °C. The reactions were stopped by the addition of 8.75 µL of 1 M HCl, followed by centrifugation at 13,400 rpm for 10 min to pellet the denatured protein. The supernatant fractions were used for high-performance liquid chromatography (HPLC) analysis. Control reactions omitting substrate were run with each assay. All incubations were performed in two repetitions.

The next data set has as its target T3, UGT 1A10 (Homo sapiens, UniProt Q9HAW8).
T3 construct: His tag; purchased Corning, NY, USA (through DIAG-MED, Poland); host or cells: baculovirus-insect cells (Supersomes); Results say Sf9 cells
T3 sequence (Q9HAW8 26-530): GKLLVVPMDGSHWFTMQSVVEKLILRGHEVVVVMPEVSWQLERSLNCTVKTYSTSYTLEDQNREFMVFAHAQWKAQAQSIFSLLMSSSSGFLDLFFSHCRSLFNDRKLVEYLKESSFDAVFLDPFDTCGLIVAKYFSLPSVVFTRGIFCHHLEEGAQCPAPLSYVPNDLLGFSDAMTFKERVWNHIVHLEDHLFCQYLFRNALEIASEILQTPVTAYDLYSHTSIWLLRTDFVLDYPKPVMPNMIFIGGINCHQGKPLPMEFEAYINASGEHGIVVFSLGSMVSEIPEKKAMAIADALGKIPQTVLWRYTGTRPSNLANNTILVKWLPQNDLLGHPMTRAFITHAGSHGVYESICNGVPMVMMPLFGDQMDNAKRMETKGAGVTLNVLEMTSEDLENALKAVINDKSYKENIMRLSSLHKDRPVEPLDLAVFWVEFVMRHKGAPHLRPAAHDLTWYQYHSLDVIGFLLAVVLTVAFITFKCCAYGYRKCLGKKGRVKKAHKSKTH
Nature of the data set: Glucuronidation with recombinant UGT1A10. Particulars: 0.05 mM compound; for Glucuronidation potency UGT 1A10: 1 mg/mL UGT, 5 mM UDPGA. Also noted: key to Glucuronidation potency UGT 1A10: −: the lack of UGT activity; +: the significant UGT activity. The method, then: as §1

The target of another data set is T4, UGT 2B17 (Homo sapiens, UniProt O75795).
T4 construct: purchased Corning, NY, USA (through DIAG-MED, Poland); host or cells: baculovirus-insect cells (Supersomes)
T4 sequence (O75795 24-530): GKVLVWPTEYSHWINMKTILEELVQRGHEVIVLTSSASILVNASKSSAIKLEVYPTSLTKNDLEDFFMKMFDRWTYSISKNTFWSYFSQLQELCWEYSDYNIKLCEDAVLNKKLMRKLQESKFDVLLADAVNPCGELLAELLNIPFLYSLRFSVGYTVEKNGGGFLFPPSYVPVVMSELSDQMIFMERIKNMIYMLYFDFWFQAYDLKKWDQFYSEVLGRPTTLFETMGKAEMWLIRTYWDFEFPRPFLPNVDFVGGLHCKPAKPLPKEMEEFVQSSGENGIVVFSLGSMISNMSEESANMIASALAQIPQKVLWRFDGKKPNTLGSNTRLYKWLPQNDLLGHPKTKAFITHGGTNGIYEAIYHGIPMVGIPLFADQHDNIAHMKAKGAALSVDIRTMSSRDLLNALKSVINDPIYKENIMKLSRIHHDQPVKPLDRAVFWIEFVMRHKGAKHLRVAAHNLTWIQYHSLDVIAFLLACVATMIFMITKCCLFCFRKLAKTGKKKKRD
Nature of the data set: Glucuronidation with recombinant UGT2B17. Set-up: key: −: the lack of UGT activity; +: the significant UGT activity. To be noted: 0.05 mM compound, 1 mg/mL UGT, 5 mM UDPGA. The method, then: as §1

Take `CN(CCCNc1c2ccccc2nc2cccc([N+](=O)[O-])c12)CCCNc1ccc2ncn3c4ccccc4c(=O)c1c23` [C-2028]: the “Glucuronidation potency UGT 1A1” value on UGT1A1 is “−”. In addition, the substrate transformed at P4503A4 was found to be 72%. The “Glucuronidation potency UGT 1A10” value on UGT 1A10 is given as “−”. For the same compound, at UGT 2B17, the “Glucuronidation potency UGT 2B17” value was “−”.
Turning to `Cc1ccc([N+](=O)[O-])c2c(NCCCN(C)CCCNc3ccc4ncn5c6ccc(O)cc6c(=O)c3c45)c3ccccc3nc12` [C-2045], the “Glucuronidation potency UGT 1A1” value on UGT1A1 was “+”. Further, the substrate transformed at P4503A4 is reported as 30%. Also, on UGT 1A10 (1 mg/mL UGT1A10, 5 mM UDPGA, 120 min), the “rate of metabolism (glucuronidation) with UGT1A10” value worked out at 18%. In addition, the “Glucuronidation potency UGT 1A10” value on UGT 1A10 is given as “+”. The “Glucuronidation potency UGT 2B17” value at UGT 2B17 was “−”.
Take `Cc1ccc([N+](=O)[O-])c2c(NCCCN(C)CCCNc3ccc4ncn5c6ccccc6c(=O)c3c45)c3ccccc3nc12` [C-2053]: the “Glucuronidation potency UGT 1A1” value at UGT1A1 is “−”. Further, the substrate transformed entry at P4503A4 is listed as “approximately 77%”. In addition, the “Glucuronidation potency UGT 1A10” value at UGT 1A10 was “−”. Besides, the “Glucuronidation potency UGT 2B17” value at UGT 2B17 is on record as “−”.
